In ChEMBL document CHEMBL4834435, “Discovery of Potent Coumarin-Based Kinetic Stabilizers of Amyloidogenic Immunoglobulin Light Chains Using Structure-Based Design” (J Med Chem, 2021):

What was measured:
[1] = molecular target: Immunoglobulin lambda variable 6-57 (Homo sapiens, UniProt P01721, F49Y/T46L); test: Stabilization of AL patient derived fluorescein-labeled IGLV6-57 T46L/F49Y mutant measured after 24 hrs by proteolysis coupled-fluorescence polarization assay
[2] = molecular target: Immunoglobulin lambda variable 6-57 (Homo sapiens, UniProt P01721); test: Stabilization of AL patient derived full length fluorescein-labeled IGLV6-57 expressed in Escherichia coli BL21 (DE3) measured after 24 hrs by proteolysis coupled-fluorescence polarization assay
[3] = Protein binding in human plasma at 2 uM after 4 hrs by UPLC-MS/MS analysis; format: ADME, cell-free
[4] = Solubility of the compound; format: physicochemical

Sequence of Immunoglobulin lambda variable 6-57 (Homo sapiens, UniProt P01721, F49Y/T46L) (P01721 whole entry, looked up, stated change not applied): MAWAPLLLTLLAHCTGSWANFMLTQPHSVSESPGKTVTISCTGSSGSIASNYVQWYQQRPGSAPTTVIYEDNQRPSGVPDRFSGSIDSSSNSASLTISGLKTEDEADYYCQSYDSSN
Sequence of Immunoglobulin lambda variable 6-57 (Homo sapiens, UniProt P01721) (P01721 whole entry): as the sequence (P01721 whole entry, looked up, stated change not applied) above

Row | solubility [4] | SMILES | EC50 [1] [nM] | EC50 [2] [nM] | PPB [3] [%]
1 | – | CCN(CC)c1ccc2c(C)c(CCN3C(=O)NC4(CCN(S(=O)(=O)c5ccccc5)C4)C3=O)c(=O)oc2c1 (stereo not given) | 648 | 207 | –
2 | – | Cc1cc(=O)oc2cc(OC(C)Cc3ccccc3)ccc12 (stereo not given) | 1380 | 2970 | –
3 | – | CCN(CC)c1ccc2c(C)c(CCN3C(=O)NC4(CCN(C(=O)c5ccc[nH]c5=O)C4)C3=O)c(=O)oc2c1 (stereo not given) | 3960 | – | –
4 | – | CCN(CC)c1ccc2c(C)c(CCN3CC4(CCN(c5nccn6ccnc56)CC4)NC3=O)c(=O)oc2c1 | 4.9 | 35.6 | > 99.5
5 | – | CCN(CC)c1ccc2c(C)c(CCOC(=O)NCc3cccc(-c4ccc[nH]c4=O)c3)c(=O)oc2c1 | 26.2 | 151 | –
6 | – | CCN(CC)c1ccc2c(C)c(CCN3C(=O)NC4(CCN(c5ncccn5)CC4)C3=O)c(=O)oc2c1 | 165 | 292 | –
7 | – | CCCN(CC)c1ccc2c(C)cc(=O)oc2c1 | – | 7890 | –
8 | – | CCN(CC)c1ccc2c(C)c(CCN3C(=O)NC4(CCN(c5nccn6ncnc56)CC4)C3=O)c(=O)oc2c1 | 55.2 | 71.1 | –
9 | – | CCN(CC)c1ccc2c(C)c(CCOC(=O)NCCc3cccnc3)c(=O)oc2c1 | 3680 | 1110 | –
10 | – | CCN(C)c1ccc2c(C)cc(=O)oc2c1 | – | 18000 | –
11 | – | CCN(CC)c1ccc2c(C)c(CCOC(=O)NCc3ccccc3)c(=O)oc2c1 | 317 | 302 | –
12 | – | CCN(CC)c1ccc2c(C)c(CCN3C(=O)NC4(CCN(c5ncnc6[nH]cnc56)CC4)C3=O)c(=O)oc2c1 | 46 | 110 | –
13 | – | CCN(CC)c1ccc2c(C)c(CCOC(=O)NCc3cccc(C(N)=O)c3)c(=O)oc2c1 | 228 | 150 | –
14 | – | CCN(CC)c1ccc2c(C)c(CCN3C(=O)NC4(CCN(c5ncnc6[nH]cnc56)C4)C3=O)c(=O)oc2c1 (stereo not given) | 355 | 551 | –
15 | – | CCN(CC)c1ccc2c(C)c(CCN3CC4(CCN(c5ncccn5)CC4)NC3=O)c(=O)oc2c1 | 13.5 | 48.1 | –
16 | – | CCN(CC)c1ccc2c(C)c(CCOC(=O)NCC3CCCNC3)c(=O)oc2c1 (stereo not given) | 8800 | 1690 | –
17 | – | CCN(CC)c1ccc2c(C)c(CCN3C(=O)NC4(CCN(c5ncccn5)C4)C3=O)c(=O)oc2c1 (stereo not given) | 688 | 1370 | –

Row | solubility [4] | SMILES | EC50 [1] [nM] | EC50 [2] [nM] | PPB [3] [%]
18 | – | CCN(CC)c1ccc2c(C)c(CCN3C(=O)NC4(CCN(c5ncnc6[nH]ncc56)CC4)C3=O)c(=O)oc2c1 | 124 | 103 | –
19 | – | CCN(CC)c1ccc2c(C)c(CCN3C(=O)NC4(CCN(c5nccn6ccnc56)CC4)C3=O)c(=O)oc2c1 | 29.8 | 62.4 | –
20 | – | CCN(CC)c1ccc2c(C)c(CCN3CC4(CCN(c5ncnc6[nH]ncc56)CC4)NC3=O)c(=O)oc2c1 | 4.7 | 8.8 | –
21 | – | CCN(CC)c1ccc2c(C)c(CCN3C(=O)NC4(CCN(S(=O)(=O)c5cccnc5)C4)C3=O)c(=O)oc2c1 (stereo not given) | 4370 | 313 | –
22 | – | CCN(CC)c1ccc2c(C)c(CCN3C(=O)NC4(CCN(C(=O)c5c[nH]cn5)C4)C3=O)c(=O)oc2c1 (stereo not given) | 729 | 855 | –
23 | – | CCN(CC)c1ccc2c(C)c(CCOC(=O)NCc3cccc(NC(C)=O)c3)c(=O)oc2c1 | 194 | 289 | –
24 | – | CCN(CC)c1ccc2c(C)c(CCOC(=O)N(C)CCc3cccnc3)c(=O)oc2c1 | > 20000 | 5280 | –
25 | – | Cc1cc(=O)oc2cc(OCC(C)c3ccccc3)ccc12 (stereo not given) | 444 | 558 | –
26 | – | CCN(CC)c1ccc2c(C)c(CCOC(=O)NCc3cncc(NC(C)=O)c3)c(=O)oc2c1 | 1170 | 816 | –
27 | – | CCN(CC)c1ccc2c(C)c(CCN3C(=O)NC4(CCN(C(=O)c5ccc[nH]c5=O)CC4)C3=O)c(=O)oc2c1 | 2700 | 3970 | –
28 | – | C#CCN(CC#C)c1ccc2c(C)cc(=O)oc2c1 | – | 2000 | –
29 | – | C#CCN(CC)c1ccc2c(C)cc(=O)oc2c1 | – | 2650 | –
30 | – | CCN(c1ccc2c(C)cc(=O)oc2c1)C(C)C | – | 9700 | –
31 | Nd(Insoluble) | Cc1ccccc1C(C)Oc1ccc2c(C)cc(=O)oc2c1 (racemic) | – | – | –
32 | – | Cc1c(CCN2CC3(CCN(c4nccn5ccnc45)CC3)NC2=O)c(=O)oc2cc(OCC(C)c3ccccc3)ccc12 (stereo in doubt; 84a) | 8.3 | 8.6 | –
33 | – | Cc1c(CCN2CC3(CCN(c4nccn5ccnc45)CC3)NC2=O)c(=O)oc2cc(OCC(C)c3ccccc3)ccc12 (stereo in doubt; 84b) | 3.9 | 11.5 | –
